# Where two headings read alike, the source gives them in different places.
# Key:
# [1] = format: physicochemical; conditions: for ThT Cat. / ThT-Fluorescence (categorical): ThT-active if fluorescence at least twice the control
# Outline: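 Preformed peptide fibrils (1 mg/mL) mixed with 50 µM ThT in PBS, 15 min at RT, fluorescence ex 440/em 488 nm versus PBS blank, triplicates. Zeta potential: peptides at 1 mg/mL in PBS pH 7.4, aged 1 d at RT, diluted in 1 mM KCl, Smoluchowski from electrophoretic mobility.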
# [2] = β-sheet content by ATR-FT-IR; format: physicochemical; conditions: Fig. S7 panel A; β-sheet content by ATR-FT-IR
# Outline: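 ATR FT-IR, diamond crystal, 64 scans, 2 cm^-1, on freeze-dried 1 mg/mL PNF; β-sheet per prior calculation. Fluorescamine CR: 3 kDa filter, DMSO redissolution, 20 min RT, ex 365/em 470 nm; values as n-fold enhancement over DMSO (set to 1).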
# [3] = Turbidity, derived count rate of scattered light; format: physicochemical; conditions: for Count Rate: derived count rate of scattered light (turbidity); for Log10 Count Rate: turbidity, derived count rate of scattered light, data of Figure 2D
# [4] = ThT fluorescence category, 1 if Rel. ThT >2
Substance,Tht category (> 2 to blank = +) ([1]; Fig S10 panel D),ThT Cat. ([1]; Fig S10 panel E),"ThT Cat, ([1]; ThT category, 1 if Rel. ThT >2)","ThT Cat. ([1]; ThT category, 1 if Rel. ThT >2)",ThT Cat. / ThT-Fluorescence (categorical) [1],b -sheet / % [2],Count Rate [3],Log10 Count Rate [3],"ThT Cat. [1, 4]",Tht category (> 2 to blank = +) ([1]; FigS12 panel A),"ThT Cat, ([1]; FigS12 panel B)"
QCKFKFQFNM,"1 (ThT. Cat is 1, if Rel. ThT >2)","1 (ThT. Cat is 1, if Rel. ThT >2)","1 (ThT. Cat is 1, if Rel. ThT >2)","1 (ThT. Cat is 1, if Rel. ThT >2)","1 (ThT. Cat is 1, if Rel. ThT >2)",37.29%,3669.6,3.565,–,–,–
CKWKWQW,0 (ThT-inactive (N-Fold <2)),–,0 (ThT-inactive (N-Fold <2)),–,0 (ThT-inactive (N-Fold <2)),34.2%,7511,3.876,0 (ThT-inactive (N-Fold <2)),–,–
SISISRRI,0 (ThT-inactive (N-Fold <2)),0 (ThT-inactive (N-Fold <2)),0 (ThT-inactive (N-Fold <2)),0 (ThT-inactive (N-Fold <2)),0 (ThT-inactive (N-Fold <2)),48.78%,25.27,1.403,–,0 (ThT-inactive (N-Fold <2)),0 (ThT-inactive (N-Fold <2))
EFEFQF,"1 (ThT. Cat is 1, if Rel. ThT >2)",–,"1 (ThT. Cat is 1, if Rel. ThT >2)",–,"1 (ThT. Cat is 1, if Rel. ThT >2)",44.93%,405.4,2.608,"1 (ThT. Cat is 1, if Rel. ThT >2)","1 (ThT. Cat is 1, if Rel. ThT >2)","1 (ThT. Cat is 1, if Rel. ThT >2)"
KIKIQINAWQ,"1 (ThT. Cat is 1, if Rel. ThT >2)",–,"1 (ThT. Cat is 1, if Rel. ThT >2)",–,"1 (ThT. Cat is 1, if Rel. ThT >2)",27.74%,1494,3.174,"1 (ThT. Cat is 1, if Rel. ThT >2)",–,–
NMWQKIKQII,0 (ThT-inactive (N-Fold <2)),–,0 (ThT-inactive (N-Fold <2)),0 (ThT-inactive (N-Fold <2)),0 (ThT-inactive (N-Fold <2)),38.14%,982.4,2.992,–,0 (ThT-inactive (N-Fold <2)),0 (ThT-inactive (N-Fold <2))
QCKFKFQFNMWQ,0 (ThT-inactive (N-Fold <2)),–,0 (ThT-inactive (N-Fold <2)),0 (ThT-inactive (N-Fold <2)),0 (ThT-inactive (N-Fold <2)),47.0491%,1208,3.082,–,–,–
KFKFQF,0 (ThT-inactive (N-Fold <2)),0 (ThT-inactive (N-Fold <2)),0 (ThT-inactive (N-Fold <2)),–,0 (ThT-inactive (N-Fold <2)),46%,183.4,2.263,0 (ThT-inactive (N-Fold <2)),0 (ThT-inactive (N-Fold <2)),0 (ThT-inactive (N-Fold <2))
KIKIQI,0 (ThT-inactive (N-Fold <2)),0 (ThT-inactive (N-Fold <2)),0 (ThT-inactive (N-Fold <2)),–,0 (ThT-inactive (N-Fold <2)),38.6%,108.3,2.035,0 (ThT-inactive (N-Fold <2)),0 (ThT-inactive (N-Fold <2)),0 (ThT-inactive (N-Fold <2))
KAKQAANMWQ,0 (ThT-inactive (N-Fold <2)),–,0 (ThT-inactive (N-Fold <2)),0 (ThT-inactive (N-Fold <2)),0 (ThT-inactive (N-Fold <2)),10.94%,690.5,2.839,–,0 (ThT-inactive (N-Fold <2)),0 (ThT-inactive (N-Fold <2))
CKFKFQFNMW,"1 (ThT. Cat is 1, if Rel. ThT >2)",–,"1 (ThT. Cat is 1, if Rel. ThT >2)",–,"1 (ThT. Cat is 1, if Rel. ThT >2)",47.7253%,4107,3.613,"1 (ThT. Cat is 1, if Rel. ThT >2)",–,–
QCKAKAQA,0 (ThT-inactive (N-Fold <2)),–,0 (ThT-inactive (N-Fold <2)),0 (ThT-inactive (N-Fold <2)),0 (ThT-inactive (N-Fold <2)),34.06%,1319.1,3.12,–,0 (ThT-inactive (N-Fold <2)),0 (ThT-inactive (N-Fold <2))
QCKIKIQINMWQ,"1 (ThT. Cat is 1, if Rel. ThT >2)","1 (ThT. Cat is 1, if Rel. ThT >2)","1 (ThT. Cat is 1, if Rel. ThT >2)","1 (ThT. Cat is 1, if Rel. ThT >2)","1 (ThT. Cat is 1, if Rel. ThT >2)",36.23%,8271,3.918,–,–,–

# Source: paper PMC10447463, “Data-mining unveils structure–property–activity correlation of viral infectivity enhancing self-assembling peptides” (Nature Communications, 2023)
